Measured values published in US8545851B2, “Composition for improving inflammatory disease using ABH antigens” (SNU R&DB Foundation, priority 2009, dated 2013).

tested on: B antigen expression in HaCaT cells harboring B antigen; experiment: Effect of ABH antigen-constituting monosaccharides and mixtures on B antigen expression, Western blotting; assay type: cell-based; settings: HaCaT cells, 0.1, 1 and 10 μM, 24 hours
Procedure: HaCaT cells harboring B antigen was treated respectively with FGG and FGGN mixture and FG (Fucose:Galactose=1:1, H-antigen composition) mixture which compose A, B, and H antigen, and also glucose, galactose, fucose, N-acetylgalactosamine and N-acetylglucosamine which are monosaccharides that constitute A, B, and H antigen at different concentrations of 0.1, 1, and 10 μM for 24 hours. Western blotting was performed to investigate the expression of B antigen. As a result, the expression of B antigen was increased in every case above (FIG. 9).

Row | Compound | expression of B antigen
1 | CC(=O)N[C@H]1C(O)O[C@H](CO)[C@H](O)[C@@H]1O (stereo partly shown) [N-acetylgalactosamine] | increased
2 | CC(=O)N[C@H]1C(O)O[C@H](CO)[C@@H](O)[C@@H]1O (stereo partly shown) [N-acetylglucosamine] | increased
3 | C[C@H](O)[C@@H](O)[C@@H](O)[C@H](O)C=O [fucose] | increased
4 | O=C[C@H](O)[C@@H](O)[C@@H](O)[C@H](O)CO [galactose] | increased
